≈ marks a conversion by molar mass, not a printed value. Read-outs that look alike come from different tables or passages of the source. Marks after values point to notes of the source that are not given here.
Key:
[1] = tested on: Staphylococcus epidermidis; test: microbe, parasite or virus in culture; assay type: cell-based
[2] = tested on: Staphylococcus haemolyticus; test: microbe, parasite or virus in culture; assay type: cell-based
Rhodococcus opacus = test: microbe, parasite or virus in culture; assay type: cell-based
[3] = tested on: Corynebacterium glutamicum; test: microbe, parasite or virus in culture; assay type: cell-based
Helicobacter pylori = test: microbe, parasite or virus in culture; assay type: cell-based
Yersinia pestis = test: microbe, parasite or virus in culture; assay type: cell-based
Chlamydia trachomatis = test: microbe, parasite or virus in culture; assay type: cell-based
Streptococcus pneumoniae = test: microbe, parasite or virus in culture; assay type: cell-based
Streptococcus pyogenes = test: microbe, parasite or virus in culture; assay type: cell-based
Lactococcus lactis = assay type: cell-based
[4] = tested on: Corynebacterium efficiens; test: microbe, parasite or virus in culture; assay type: cell-based
Staphylococcus aureus = assay type: cell-based; details: S. aureus mutant, Pro^29 replaced by Ser
Brevibacillus brevis = test: microbe, parasite or virus in culture; assay type: cell-based
Bacillus subtilis = test: microbe, parasite or virus in culture; assay type: cell-based
Streptococcus agalactiae = test: microbe, parasite or virus in culture; assay type: cell-based
Escherichia coli = test: microbe, parasite or virus in culture; assay type: cell-based
Pseudomonas aeruginosa = test: microbe, parasite or virus in culture; assay type: cell-based
Klebsiella pneumoniae = test: microbe, parasite or virus in culture; assay type: cell-based
Lactobacillus gasseri = test: microbe, parasite or virus in culture; assay type: cell-based
[5] = tested on: Lactobacillus acidophilus; test: microbe, parasite or virus in culture; assay type: cell-based
Lactobacillus plantarum = test: microbe, parasite or virus in culture; assay type: cell-based; details: Lactiplantibacillus plantarum
Clostridium difficile = test: microbe, parasite or virus in culture; assay type: cell-based; details: Clostridioides difficile
Clostridium bolteae = test: microbe, parasite or virus in culture; assay type: cell-based; details: Enterocloster bolteae
Clostridium perfringens = test: microbe, parasite or virus in culture; assay type: cell-based
Bacteroides fragilis = test: microbe, parasite or virus in culture; assay type: cell-based
Prevotella copris = test: microbe, parasite or virus in culture; assay type: cell-based
Lactobacillales = test: organism not typed; assay type: cell-based
[6] = tested on: Clostridia and Bacteriodetes; test: MIC, Clostridia and Bacteriodetes; assay type: cell-based
[7] = tested on: E. coli strains harboring the indicated amino acid at SPase residue 84
Enterococcus faecalis = details: cited from earlier work
[8] = tested on: E. coli strains harboring the indicated amino acid at SPase residue 84; test: MIC for E. coli strains with mutant SPase residue 84; details: for MIC: Escherichia coli

For CCCCCCCCCCCCCCCC(=O)N(C)[C@H](CO)C(=O)N[C@H](C)C(=O)NCC(=O)N(C)[C@@H]1C(=O)N[C@@H](C)C(=O)N[C@H](C(=O)O)Cc2ccc(O)c(c2)-c2cc1ccc2O [arylomycin C16], the MIC ([1]; Staphylococcus epidermidis) was 0.25 µg/mL (≈ 0.284 µM), the “elevated MIC compared to the wild type strain” value ([1]; resistant mutants (remainder), SpsIB Ser to Pro at position 31) was “greater than 256 fold” and the “elevated MIC compared to the wild type strain” value ([1]; resistant mutants (~75%), SpsIB Ser to Pro at position 29) was 32 fold. The MIC [2] was 2 µg/mL (≈ 2.27 µM), the MIC (Rhodococcus opacus) was 2 µg/mL (≈ 2.27 µM) and the MIC [3] was 2 µg/mL (≈ 2.27 µM). For the same compound, the MIC (Helicobacter pylori) was 4 µg/mL (≈ 4.54 µM), the MIC (Yersinia pestis) was 4 µg/mL (≈ 4.54 µM) and the MIC (Chlamydia trachomatis) was 6 µg/mL (≈ 6.81 µM). For the same compound, the MIC (Streptococcus pneumoniae) was 16 µg/mL (≈ 18.2 µM), the MIC (Streptococcus pyogenes) was 16 µg/mL (≈ 18.2 µM) and the MIC (Lactococcus lactis) was 16, >128 ^a μg/ml. For the same compound, the MIC [4] was greater than 64 µg/mL, the “sensitivity of Pro to Ser SPase mutant strain” value (from here on “sensitivity of Pro”) (Staphylococcus aureus) was “high degree of sensitivity” and the MIC (Brevibacillus brevis) was greater than 64 µg/mL. The MIC (Bacillus subtilis) was greater than 128 µg/mL, the MIC (Streptococcus agalactiae) was greater than 128 µg/mL and the MIC (Escherichia coli) was greater than 128 µg/mL. For the same compound, the “decrease of MIC on permeabilizing with polymyxin B nonapeptide” value (Pseudomonas aeruginosa; P. aeruginosa Pro to Ser mutant) was no more than 4 fold, the “sensitivity of Pro” value (Pseudomonas aeruginosa; P. aeruginosa mutant, Pro^84 replaced by Ser) was “high degree of sensitivity” and the MIC (Pseudomonas aeruginosa; Pseudomonas aeruginosa) was greater than 128 µg/mL. For the same compound, the MIC (Klebsiella pneumoniae) was greater than 128 µg/mL, the MIC (Lactobacillus gasseri) was greater than 128 µg/mL and the MIC [5] was greater than 128 µg/mL. For the same compound, the MIC (Lactobacillus plantarum) was greater than 128 µg/mL, the MIC (Clostridium difficile) was greater than 16 µg/mL and the MIC (Clostridium bolteae) was greater than 16 µg/mL. It also gave an MIC (Clostridium perfringens) greater than 16 µg/mL, an MIC (Bacteroides fragilis) greater than 16 µg/mL and an MIC (Prevotella copris) greater than 16 µg/mL. The MIC (Lactobacillales) was greater than 64 µg/mL, the MIC [6] was greater than 16 µg/mL and the “decrease of MIC on permeabilizing with polymyxin B nonapeptide” value [7] was no more than 4 fold. The MIC (Enterococcus faecalis) was >64 ^b μg/ml, the “sensitivity of Pro” value ([8]; E. coli mutant, Pro^84 replaced by Ser) was “high degree of sensitivity” and the MIC ([8]; His at SPase residue 84 (temperature sensitive phenotype)) was 4 µg/mL (≈ 4.54 µM). For the same compound, the MIC ([8]; Phe at SPase residue 84 (temperature sensitive phenotype)) was 2 µg/mL (≈ 2.27 µM), the MIC ([8]; Pro at SPase residue 84, detection limit 256 μg/ml) was greater than 256 µg/mL and the MIC ([8]; read-out: MICs, all of the other amino acids (not Pro) at SPase residue 84) was no more than 16 µg/mL.
